ChEMBL document CHEMBL2073901, “Enhancement of doxorubicin activity in multidrug-resistant cells by mefloquine” (Methods Find Exp Clin Pharmacol, 2000)

Assays:
[1] = molecular target: T1, ATP-dependent translocase ABCB1 (Homo sapiens, UniProt P08183); assay: TP_TRANSPORTER: intracellular accumulation in K562 and K562/DXR cells; format: functional, cell-based
[2] = molecular target: T1, ATP-dependent translocase ABCB1; assay: TP_TRANSPORTER: increase in Rhodamine 123 intracellular accumulation (R123: 10 uM, Mefloquine: 10 uM) in K562/DOX cells; format: functional, cell-based; conditions: k562/adr
[3] = molecular target: T1, ATP-dependent translocase ABCB1; assay: TP_TRANSPORTER: inhibition of Azidopine photoaffinity labelling (Azidopine: 0.1 uM, Mefloquine: 10 uM) in membranes from K562/DOX cells; format: functional, cell membranes, Membrane; conditions: k562/adr

T1 sequence (P08183 whole entry): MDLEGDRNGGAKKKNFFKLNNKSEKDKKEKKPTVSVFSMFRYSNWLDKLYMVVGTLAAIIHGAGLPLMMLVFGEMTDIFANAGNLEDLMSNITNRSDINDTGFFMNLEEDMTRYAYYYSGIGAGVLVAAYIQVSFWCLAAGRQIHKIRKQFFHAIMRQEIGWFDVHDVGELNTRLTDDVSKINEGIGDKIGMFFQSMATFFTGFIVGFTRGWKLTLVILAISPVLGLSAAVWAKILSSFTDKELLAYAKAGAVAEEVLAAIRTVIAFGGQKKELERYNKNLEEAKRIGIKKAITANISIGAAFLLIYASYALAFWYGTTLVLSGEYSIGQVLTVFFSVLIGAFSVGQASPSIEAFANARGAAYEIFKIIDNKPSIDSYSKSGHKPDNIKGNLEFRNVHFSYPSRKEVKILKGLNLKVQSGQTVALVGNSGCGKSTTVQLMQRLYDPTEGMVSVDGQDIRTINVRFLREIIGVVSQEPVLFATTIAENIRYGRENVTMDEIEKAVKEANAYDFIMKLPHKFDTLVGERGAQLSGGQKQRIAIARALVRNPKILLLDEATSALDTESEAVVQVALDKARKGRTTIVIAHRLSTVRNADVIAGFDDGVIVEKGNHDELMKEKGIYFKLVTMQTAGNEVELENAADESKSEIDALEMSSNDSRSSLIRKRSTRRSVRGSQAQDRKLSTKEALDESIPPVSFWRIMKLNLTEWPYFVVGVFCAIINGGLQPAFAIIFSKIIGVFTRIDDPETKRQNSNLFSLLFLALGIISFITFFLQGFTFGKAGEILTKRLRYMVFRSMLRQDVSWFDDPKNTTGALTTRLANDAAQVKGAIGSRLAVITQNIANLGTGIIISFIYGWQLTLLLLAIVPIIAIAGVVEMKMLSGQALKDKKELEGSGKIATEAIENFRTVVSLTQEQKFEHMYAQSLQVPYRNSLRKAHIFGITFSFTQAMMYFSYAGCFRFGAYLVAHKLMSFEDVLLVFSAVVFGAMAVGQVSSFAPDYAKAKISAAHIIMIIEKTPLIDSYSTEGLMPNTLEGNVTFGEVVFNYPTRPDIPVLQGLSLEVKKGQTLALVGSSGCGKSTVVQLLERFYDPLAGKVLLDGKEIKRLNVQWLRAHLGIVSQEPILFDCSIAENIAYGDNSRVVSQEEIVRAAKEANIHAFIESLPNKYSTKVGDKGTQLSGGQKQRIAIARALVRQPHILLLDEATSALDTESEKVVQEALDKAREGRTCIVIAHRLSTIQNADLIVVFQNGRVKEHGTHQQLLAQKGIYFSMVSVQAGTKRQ

Structure (SMILES)	Activity [1]	Activity [2]	Activity [3]
COC(=O)c1ccccc1-c1c2ccc(=N)cc-2oc2cc(N)ccc12.Cl [RHODAMINE123]	substrate [+]	–	–
OC(c1cc(C(F)(F)F)nc2c(C(F)(F)F)cccc12)C1CCCCN1 (stereo not drawn) [MEFLOQUINE]	–	inhibitor [+]	inhibitor [+]
